Read-outs that look alike come from different tables or passages of the source.
How the values were obtained:
[1] = test system: Human ovarian adenocarcinoma cells (OVCAR-3); assay: Cytotoxicity assay (MTS), OVCAR-3; type: cell-based
Method: (§1) Human ovarian adenocarcinoma cells (OVCAR-3) (5×10^3 cells/well) and RAW 264.7 mouse macrophages (2×10^4 cells/well) were plated in 96-well plate in RPMI-1640 medium and Dulbecco's Modified Eagle's Medium (DMEM) (20% and 10% fetal bovine serum, for the OVCAR-3 and RAW 264.7, respectively and 1% penicillin/streptomycin). […] The paclitaxel conjugate was prepared as described previously, and the Taxol®-mimicking formulation was prepared in similar composition to Taxol® (i.e. Cremophor-EL and ethanol, 1:1 v/v). For each well, 20 μL of every formulation was added to 100 μL of the medium. The cells were incubated with the formulations for 72 h and washed once with phosphate-buffered saline (PBS) and 100 μL of the complete medium was added to the cells. 20 μL of the MTS combined reagent was added to each well (Cell Titer 96® Aqueous Non-Radioactive Cell Proliferation Assay, Promega Co., Madison, Wis.). […] Absorbance was measured at 490 nm using SpectraMax M5 (Molecular Devices Co., Sunnyvale, Calif.). The cell viability was calculated based on the relative absorbance to the control untreated cells. The IC50 values were calculated using GraphPad Prism four-parameter fit, considering the 0% and 100% viabilities correspond to the medium control (no cells) and cells-treated with PBS, respectively.

[2] = test system: RAW 264.7 mouse macrophages; assay: Cytotoxicity assay (MTS), RAW 264.7; type: cell-based
Method: as §1

[3] = test system: KB cells, a human nasal pharyngeal cancer cell line; assay: Cell viability (WST-1), KB cells; type: cell-based; conditions: Table 1, 72 h, PTX as free PTX
Method: Polymer paclitaxel and free paclitaxel were tested in KB cells, a human nasal pharyngeal cancer cell line and A549 cells, a human lung carcinoma cell line. KB and A549 cells (ATCC, Manassas, Va.) were maintained in monolayer cultures in folate free RPMI (Life Technologies, Carlsbad, Calif.) and F-12K media (Mediatech, Manassas, Va.) respectively, supplemented with 10% fetal bovine serum and penicillin/streptomycin antibiotics. For screening purposes 2,500 cells in 100 μL of complete cell culture media were plated in a 96 well plate (Corning, Lowell, Mass.) in triplicates and were then incubated for 24 h in a humidified CO2 cell culture incubator maintained at 37° C. Serial dilutions of polymer-paclitaxel conjugates and paclitaxel were prepared in PBS and added to cells in a volume of 10 μL. The cells were either incubated for a short period of 2 h or for longer continuous incubation of 72 h. After 2 h incubation, the media was replaced with 110 μL of fresh complete RPMI. Cell viability was assessed by using a colorimetric WST-1 cell proliferation kit (Roche, Indianapolis, Ind.) and following manufacturer's instructions. Cell viability was calculated as a percentage of the control cells treated with no drugs. […]

[4] = Saturate concentration of PTX in PBS buffer by UV; type: physicochemical
Method: The saturate concentration is around 1.7 ug/mL. PTX concentrations as low as 6.25 ng/mL were detected.

IC50 [3]: 0.0044 µM
saturate concentration of PTX [4]: around 1.7 ug/mL
SMILES: CC(=O)O[C@H]1C(=O)[C@@]2(C)[C@H]([C@H](OC(=O)c3ccccc3)[C@]3(O)C[C@H](OC(=O)[C@H](O)[C@@H](NC(=O)c4ccccc4)c4ccccc4)C(C)=C1C3(C)C)[C@]1(OC(C)=O)CO[C@@H]1C[C@@H]2O [PTX, paclitaxel]
IC50 ([1]; Table 1, 72 h, PTX as Taxol®-mimicking formulation (Cremophor-EL and ethanol, 1:1 v/v), read-out: IC50 (μM) OVCAR-3): 0.007 µM
IC50 ([1]; Table 2, 72 hours, PTX as Taxol-mimicking formulation, read-out: IC50 (μM)in OVCAR-3): 0.007 µM
IC50 ([2]; RAW264.7, Table 1, 72 h, PTX as Taxol®-mimicking formulation (Cremophor-EL and ethanol, 1:1 v/v), read-out: IC50 (μM) RAW 264.7): 0.044 µM
IC50 ([2]; RAW264.7, Table 2, 72 hours, PTX as Taxol-mimicking formulation, read-out: IC50 (μM) in RAW 264.7): 0.04 µM
